Assay results published in US20240067634A1, “INHIBITORS OF NEF DOWNMODULATION” (priority 2020, published 2024).
Read-outs that look alike come from different tables or passages of the source.

Key:
HIV-1 Nef = target: T1, HIV-1 Nef (Human immunodeficiency virus 1, UniProt P03406); test: Anti-Nef activity: reversal of Nef-dependent MHC-I HLA-A2 downmodulation, flow cytometry; type: cell-based
T1 sequence (P03406 2-206): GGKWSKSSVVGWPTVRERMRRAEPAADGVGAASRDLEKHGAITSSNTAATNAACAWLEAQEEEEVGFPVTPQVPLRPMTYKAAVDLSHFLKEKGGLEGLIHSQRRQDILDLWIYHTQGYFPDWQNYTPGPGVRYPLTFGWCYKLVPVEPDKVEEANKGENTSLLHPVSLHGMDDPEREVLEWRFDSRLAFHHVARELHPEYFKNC
Description: Determination of anti-Nef activity: To identify molecules with enhanced Nef inhibition, decreased toxicity and decreased inhibition of lysosomes, the analogs of the disclosure are screened initially for Nef inhibitory activity using a high throughput assay in HIV-1 infected CEM-A2 cells. These cells are infected with an HIV-1 reporter construct for 48 hours and then exposed to potential inhibitors for 24 hours. Cells are harvested and stained for flow cytometric analysis of HLA-A2 surface expression, and the fold downmodulation of HLA-A2 are calculated by comparing expression on uninfected cells to that on infected cells.
PBMCs is isolated from leukopaks, CD8-depleted, and stimulated with PHA.
To assess their toxicity, an MTT assay was used, which measures […] dehydrogenase activity. Metabolically active cells reduce MTT to MTT-formazan leading to a color change. For this analysis, PHA-activated primary human PBMCs were exposed to a range of concentrations of each drug continuously for 72 hours of culture.

[1] = target: V-ATPase-dependent lysosomal acidification; test: cells; type: cell-based, human; settings: 24 hr Lysotracker IC50; 1000 nM set as activity threshold (FIG. 11-14); read-out: Lyso IC50
Excerpt: Determine effect on V-ATPase activity: Plecomacrolides are known inhibitors of V-ATPase that neutralize normally acidified lysosomes. […] Thus, analogs of the disclosure are further characterized by measuring their effects on lysosome acidification.
LysoTracker® is a fluorophore linked to a weak base that is partially protonated at neutral pH. This form of the probe is capable of freely permeating cell membranes of live cells. In acidic compartments, protonation creates a form that was impermeable causing the probe to accumulate inside the lysosome.

C57BL/6J and BALB/c mice = settings: five consecutive doses at 12 mg/kg; cited from earlier work
C57BL/6J mice = settings: cited from earlier work
[2] = tested on: Nef-dependent degradation of MHC-I and CD4; test: Western blot of Nef-dependent protein degradation in sorted HIV-1 infected primary T cells; type: cell-based, human
[3] = tested on: HIV-1 WT infected primary T cells; test: In vitro flow cytometric anti-HIV-1 CTL killing assay; type: cell-based, human; settings: low dose CMA (0.5 nM in FIG. 8); anti-HIV-1 CTL clone
Description: Numbers are mean percent infected cell survival after a 4 hour incubation with a 2:1 effector:target (E:T) ratio of an anti-HIV-1 CTL clone recognizing Gag SL9 epitope (n=2).
Mean +/− standard deviation is shown n=2. E:T, effector:target.
Therefore, the effect of promising Nef inhibitor analogs is generated as disclosed herein on anti-HIV-1 CTL killing using the in vitro flow cytometric CTL killing assay developed previously (FIGS. 1 and 8 ? (Collins et al., 1998). These studies utilize CTL clones reactive against various HIV-1 epitopes known to be affected by Nef (Collins et al., 1998).

[4] = HIV-1 infected primary T lymphocytes
[5] = intraperitoneal daily over three days, 10 mg/kg

Row | SMILES | IC50 [1] | restoration of MHC-I HLA-A2 surface expression (HIV-1 Nef; [4]) | overall body weight (C57BL/6J and BALB/c mice) | pancreatic islet cell size (C57BL/6J and BALB/c mice) | random blood glucose (C57BL/6J and BALB/c mice) | also measured
1 | C/C=C/[C@H]1O[C@@H]([C@@H](C)[C@H](O)[C@H](C)[C@H]2OC(=O)/C(OC)=C/C(C)=C/[C@@H](C)[C@@H](O)[C@@H](CC)[C@@H](O)[C@H](C)C/C(C)=C/C=C/[C@@H]2OC)C[C@@H](O)[C@@H]1C [21-Deoxy CMF, 21-deoxy concanamycin F] | 23.3 nM |  |  |  |  | IC50 (HIV-1 Nef; 24 hr Nef activity IC50, independent donors, 1000 nM set as activity threshold (FIG. 11-14)): 4.29 nM
2 | CO/C1=C\C(C)=C\[C@@H](C)[C@@H](O)[C@@H](C)C/C(C)=C/C=C/[C@H](OC)[C@@H]([C@@H](C)[C@@H](O)[C@H](C)[C@@]2(O)C[C@@H](O)[C@H](C)[C@@H](C(C)C)O2)OC1=O [BafA1, Bafilomycin A1] | 45.2 nM | restore MHC-I HLA-A2 | not affected | decrease in pancreatic islet cell size | did not cause significant variations | weight loss (C57BL/6J mice; 25 mg/kg, within 12 days of injection): 30%; body weight (C57BL/6J mice; [5]): maintained a normal weight; liver toxicity (C57BL/6J mice; [5]): no evidence of liver toxicity; liver enzymes (C57BL/6J mice; intraperitoneal, 25 mg/kg): increases in liver enzymes indicative of liver damage
3 | C/C=C/[C@H]1O[C@@](O)([C@@H](C)[C@H](O)[C@H](C)[C@H]2OC(=O)/C(OC)=C/C(C)=C/[C@@H](C)[C@@H](O)[C@@H](CC)[C@@H](O)[C@H](C)C/C(C)=C/C=C/[C@@H]2OC)C[C@@H](O[C@H]2C[C@@H](O)[C@H](OC(N)=O)[C@@H](C)O2)[C@@H]1C [CMA, Concanamycin A] | 0.977 nM | restore MHC-I HLA-A2 | not affected | decrease in pancreatic islet cell size | did not cause significant variations | concentration with activity in restoring MHC-I HLA-A2 (HIV-1 Nef; HIV-1 infected primary T lymphocytes, FIG. 2): ~100 pM; Nef-dependent degradation of MHC-I ([2]; antibody HC-10, FIG. 9): selectively reverses; Nef-mediated CD4 degradation ([2]; concentrations sufficient to reverse Nef-mediated degradation of MHC-I, FIG. 9): did not significantly alter; CTL killing of HIV-1 WT infected primary T cells [3]: increases CTL killing
4 | CO/C1=C\C(C)=C\C(C)C(O)C(C)C/C(C)=C/C=C/C(OC)C(C(C)C(O)C(C)C2(O)CC(O[C@@H]3O[C@@H](C)[C@H](O)[C@@H](O)[C@H]3OC)C(C)C(C(C)C)O2)OC1=O (stereo partly drawn) [Leucanicidin, reference compound] | 2.04 nM |  |  |  |  | 
5 | CC=CC=CC1OC(O)(C(C)C(O)C(C)C2OC(=O)C(OC)=CC(C)=CC(C)C(O)C(C)CC(C)=CC=CC2OC)CC(OC2CC(O)C(O)C(C)O2)C1C (stereo not drawn) [PC-766B, reference compound] | 2.72 nM |  |  |  |  | 
6 | C/C=C/C1OC(O)(C(C)C(O)C(C)C2OC(=O)/C(OC)=C/C(C)=C/C(C)C(O)C(CC)C(O)C(C)C/C(C)=C/C=C/C2OC)CC(OC(=O)/C=C/C(=O)NC2=C(O)CCC2=O)C1C (stereo not drawn) [Virustomycin, reference compound] | 3.68 nM |  |  |  |  | IC50 (HIV-1 Nef): 0.688 nM
